We go through one compound from paper PMC6923798 (Bioorganic chemistry, 2018).

One experiment relates to HCT-15. Description: NCI in vitro five dose anticancer assay. The experiment is classed as cell-based, human.
A further experiment concerns SK-MEL-5. In words: NCI in vitro five dose anticancer assay. The experiment is classed as cell-based, human.
For experiment [1], the system named is full panel of 58 human tumor cell lines. Description: NCI in vitro five dose anticancer assay, whole panel. Type of experiment: cell-based. To be noted: read-out: GI50 (range over panel).
Another experiment has as its system IGROV1. Description: NCI in vitro five dose anticancer assay. The experiment is classed as cell-based, human.
A further experiment deals with SF-268. Description: NCI in vitro five dose anticancer assay. Type of experiment: cell-based, human.
For another experiment, the system named is Jurkat. In words: MTT anti-proliferative assay. Type of experiment: cell-based, human. Conditions: Homo sapiens, Jurkat, 24 h, read-out: IC50 ± SD, Jurkat.
The test system of another experiment is SR. Description: NCI in vitro five dose anticancer assay. Type of experiment: cell-based, human. Conditions: 48 h.
In the next experiment the test system is HOP-62. Description: NCI in vitro five dose anticancer assay. Type of experiment: cell-based, human.

On to `COc1ccc(C=CC(=O)c2ccc(NC(=O)CSc3nnc(-c4cc(OC)c(OC)c(OC)c4)o3)cc2)cc1` [Compound 8v, N-(4-(3-(4-Methoxyphenyl)acryloyl)phenyl)-2-((5-(3,4,5-trimethoxy-phenyl)-1,3,4-oxadiazol-2-yl)thio)acetamide], for which the concentration for total growth inhibition (TGI) (as a rule, the concentration giving total growth inhibition) with HCT-15 (HCT-15, Colon Cancer, five dose, 48 h, SRB) was found to be 3220 nM; with SK-MEL-5 (SK-MEL-5, Melanoma, five dose, 48 h, SRB), 5240 nM; in the experiment on IGROV1 (IGROV1, Ovarian Cancer, five dose, 48 h, SRB), 3750 nM; in the experiment on SF-268 (SF-268, CNS cancer, five dose, 48 h, SRB), 3960 nM; in the experiment on SR (Leukemia, five dose, SRB), 4010 nM; in the experiment with HOP-62 (HOP-62, Non-Small Cell Lung Cancer, five dose, 48 h, SRB) it was 4530 nM. For the same compound, the 50% growth inhibitory concentration (GI50) – broadly, the concentration giving 50% growth inhibition – in the experiment on HCT-15 (Homo sapiens, HCT-15, 48 h) was 1630 nM; in the experiment on SK-MEL-5 (Homo sapiens, SK-MEL-5, 48 h), 2140 nM; in experiment [1], 320 to 11000 nM; with IGROV1 (Homo sapiens, IGROV-1, 48 h), 1540 nM; in the experiment on SF-268 (Homo sapiens, SF-268, 48 h), 1790 nM; in the experiment on SR (Homo sapiens), 1860 nM. In the experiment on HOP-62 (Homo sapiens, HOP-62, 48 h), the GI50 worked out at 2130 nM. Moreover, the IC50 – broadly, the concentration that gives 50% inhibition – with Jurkat came out at 2360 ± 470 nM.
